Data on eleven compounds can be found in ChEMBL document CHEMBL1201862, “PubChem BioAssay data set” (2004).

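Interpolation was linear, between the two tested concentrations surrounding the appropriate level; five concentrations were tested over 48 hours in 96-well plates. GI50 = concentration required for 50% inhibition of growth.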 Activity calls are given as the source filed them. No stated cut-off is given here; in the data, active = GI50 up to about 1.1 µM and inactive = higher.

What all share (test): growth of human tumour cells (NCI), 48 h
Assay [1] concerns SK-MEL-5.
For assay [2], the system named is SN12C.
Assay [3] relates to SF-539.
Assay [4] concerns ACHN.
Assay [5] relates to LOX IMVI.
Assay [6] concerns Malme-3M.
Assay [7] concerns SF-268.
Assay [8] has as its system RPMI-8226.
In assay [9] the test system is HL-60.
Assay [10] concerns HOP-92.
Assay [11] concerns SK-MEL-2.
The subject of assay [12] is K562.
Assay [13] concerns SW-620.
Assay [14] relates to CAKI-1.
Assay [15] relates to SNB-19.

Turning to `O=C(O)CSc1nnc(COc2ccccc2)n1-c1ccccc1`, the GI50 in assay [1], in assay [2], in assay [3], in [4], in [5] and in assay [6] was > 100 µM (inactive) throughout. For the same compound, the GI50 in assay [7], in assay [8], in assay [9], in assay [10] and in [11] was > 100 µM (inactive) throughout.
With `CC1(C)CCOC(Sc2ccccc2)C1` (centres undefined), the GI50 in assay [12] was 21.9 µM (inactive); in [1] it was 15 µM (inactive); in assay [2] it was > 100 µM (inactive); in assay [4], 63.7 µM (inactive); in assay [5], 91.4 µM (inactive); in assay [13], > 100 µM (inactive). Further, the GI50 in assay [14] was 96.8 µM (inactive); in assay [7], > 100 µM (inactive); in [8], 18.3 µM (inactive); in assay [15], > 100 µM (inactive); in assay [9], 10.5 µM (inactive); in assay [11], 30.3 µM (inactive).
For `CN1Cc2c(nc(-c3ccc(Br)cc3)c[n+]2[O-])N(C)C1`, the GI50 in assay [12], in assay [1], in [2], in assay [3], in assay [4] and in assay [13] was > 100 µM (inactive) in each case. Further, the GI50 in [14], in [6], in [7], in assay [15], in assay [9] and in assay [10] was > 100 µM (inactive) in each case. Also, the GI50 in assay [11] is > 100 µM (inactive).
In the case of `COC(CN1C(=O)c2cccc3cccc(c23)C1=O)OC`, the GI50 in [12] is 68.5 µM (inactive); in assay [1] it was 70.1 µM (inactive); in [2], 41.1 µM (inactive); in assay [3], 57.7 µM (inactive); in assay [4] it was 41.5 µM (inactive); in [5], 53.5 µM (inactive). Also, the GI50 in [13] was 91.8 µM (inactive); in [6], > 100 µM (inactive); in [7] it was > 100 µM (inactive); in [8], 52.6 µM (inactive); in assay [15] it was > 100 µM (inactive); in assay [9] it was 72.9 µM (inactive). For the same compound, the GI50 is 73.5 µM (inactive) in assay [10] and 1.61 µM (inactive) in assay [11].
Regarding `COc1ccc2[nH]c3c(C)cc([N+](=O)[O-])c(C)c3c2c1`, the GI50 in assay [12] was 18.4 µM (inactive); in assay [1], 25.6 µM (inactive); in [2] it was 31.3 µM (inactive); in assay [3], 23.7 µM (inactive); in assay [4], 22 µM (inactive); in assay [13] it was 21.7 µM (inactive). In addition, the GI50 was 19.4 µM (inactive) in assay [14]; 28.6 µM (inactive) in assay [6]; 37.3 µM (inactive) in [7]; 17.7 µM (inactive) in assay [8]; 37.8 µM (inactive) in [15]; 16.6 µM (inactive) in assay [9]. Moreover, the values for the GI50 in assay [10] and in assay [11] were 28.4 µM (inactive) and 20.6 µM (inactive), respectively.
Turning to `O=C(c1ccc(Cl)cc1Cl)C1[C@H]2C(=O)N(c3ccc(Cc4ccc(N5C(=O)[C@@H]6ON(c7ccccc7)C(C(=O)c7ccc(Cl)cc7Cl)[C@@H]6C5=O)cc4)cc3)C(=O)[C@H]2ON1c1ccccc1` (some centres undefined), the GI50 in assay [12], in assay [1], in assay [2], in [3], in assay [4] and in [5] was > 50 µM (inactive) throughout. Further, the GI50 in assay [13], in assay [14], in [6], in assay [7], in [8] and in assay [15] was > 50 µM (inactive) throughout. For the same compound, the GI50 in assay [9] and in assay [11] was > 50 µM (inactive) each time.
As for `CC(/C(=N\Nc1ccccc1)c1ccc(O)cc1)C1C(=O)Oc2ccccc21` (centres undefined), the GI50 in assay [12], in assay [1], in assay [2], in [3], in [4] and in assay [5] was > 100 µM (inactive) each time. Also, the GI50 in assay [13], in [14], in [6], in assay [8], in [15] and in assay [9] was > 100 µM (inactive) in each case. Also, the GI50 in assay [11] was > 100 µM (inactive).
With `CC1CC[C@@]23CCC4(C)[C@@](C=CC5[C@@]6(C)CCC(=O)C(C)(C)C6CC[C@]54C)(OC2=O)[C@@H]3[C@H]1C` (some centres undefined), the GI50 was 6.3 µM (inactive) in assay [12]; 4.84 µM (inactive) in [1]; 20.2 µM (inactive) in assay [2]; 24.5 µM (inactive) in assay [3]; 12 µM (inactive) in [4]; 13.8 µM (inactive) in [5]. Also, the GI50 in [13] is 30.8 µM (inactive); in [14], 21.5 µM (inactive); in [6], 20.9 µM (inactive); in assay [7], 50.4 µM (inactive); in assay [15], 29.8 µM (inactive); in [9] it was 1.6 µM (inactive). In addition, in [10], the GI50 is 15.9 µM (inactive).
With `Cn1c(=O)nc2n(-c3cccc(F)c3)c3ccccc3nc-2c1=O`, the GI50 in assay [12] is 19.6 µM (inactive); in assay [1], 14.2 µM (inactive); in assay [2], 23.6 µM (inactive); in assay [3], 25.4 µM (inactive); in [4], 8 µM (inactive); in assay [5] it was 18.1 µM (inactive). Besides, the GI50 in assay [13] was 11.1 µM (inactive); in [14], 27.2 µM (inactive); in assay [6] it was 14.4 µM (inactive); in assay [7] it was 43.3 µM (inactive); in [8], 20.5 µM (inactive); in [15], 21.9 µM (inactive). In addition, the GI50 in assay [11] was 20.3 µM (inactive).
Consider `CCN(CC)C(=S)S` [DITIOCARB SODIUM], for which the GI50 is 0.138 µM (active) in [12]; 1.63 µM (inactive) in assay [1]; > 70 µM (inactive) in assay [2]; > 60.4 µM (inactive) in assay [3]; 53.7 µM (inactive) in [4]; > 55.5 µM (inactive) in assay [5]. The GI50 is 0.117 µM (active) in assay [13]; 19.1 µM (inactive) in assay [6]; > 79.1 µM (inactive) in assay [7]; 0.528 µM (active) in assay [8]; > 100 µM (inactive) in assay [15]; 0.294 µM (active) in assay [9]. Also, the GI50 in assay [10] is > 76.6 µM (inactive); in assay [11] it was > 81.1 µM (inactive).
As to `COCC(O)Cn1ccnc1[N+](=O)[O-]` (centres undefined) [MISONIDAZOLE], the GI50 in [12], in [2], in assay [3], in assay [4], in assay [5] and in assay [13] was > 100 µM (inactive) each time. Also, the GI50 in [14], in assay [6], in [7], in assay [8], in assay [15] and in assay [9] was > 100 µM (inactive) each time. Further, the GI50 in assay [11] is > 100 µM (inactive).
